Values joined by “and” are separate entries in the source; they are usually repeats but may differ in a detail not shown here. Equal entries are not always repeated. “Also recorded” adds a separate entry of the source. Where two headings read alike, the source gives them in different places.
What was measured:
[1] = target: T1, HEK293/human α7 nAChR cells (Homo sapiens, UniProt P36544); assay: Whole cell voltage clamp electrophysiology; assay type: cell-based; details: for Net Charge (Current Area) normalized to 300 µM ACh / Peak Current normalized to 3 mM ACh: individual cells
T1 construct: expressed in transfected cells
Experimental: Whole-cell voltage clamp studies were conducted on HEK293/rat α7 or HEK293/human α7 nAChR cells. […] Atropine (1 μM) was included in the bathing solution. […] Cells were voltage clamped at a holding potential of -90 mV. Using the Dynaflow microfluidic perfusion system (Cellectricon; flow 26 μl/min) responses to a 300 ms application of ACh or α7 nAChR agonists were measured. Currents were filtered at 2 kHz and sampled at 10 kHz using an EPC-9 amplifier and HEKA Pulse/Patchmaster software. […] The peak current amplitude and net charge crossing the membrane (i.e. the area under the current response curve) induced by agonist application were measured using Clampfit (pClamp Suite) and normalized to the maximal response induced by ACh (3 mM ACh for peak current amplitude and 300 μM ACh for net charge).

[2] = system: MK-801 treated mice; assay: Mouse MK-801 two trial Y maze; assay type: in vivo
Experimental: Testing was conducted in a grey polyethylene plastic Y maze that had 3 arms, 2 of 40 cm length (test arms) and 1 of 20 cm length (start arm). Each arm had distinct optical cues covering the walls and a removable partition to occlude the arm as needed. The test consisted of a forced choice trial followed by a free-choice trial. For the forced choice trial the start arm and one test arm was open with access to the 2nd test arm blocked by the partition. Individual subjects were placed in the start arm and allowed to explore the open test arm for 8 min after which they were removed from the maze, placed in a holding cage and the maze was cleaned. Animals were then immediately placed back on the Y maze for the free choice trial and allowed to explore both open test arms for 4 min. The protocol was thus designed for minimal delay between the forced choice and free choice trials. […] For each subject the % time exploring the novel arm during the free choice trial was calculated using the formula: % novel time = novel time/(novel + familiar time) x 100.

[3] = system: neonatal PCP treated rats; assay: Rat neonatal PCP ID/ED set shifting; assay type: in vivo; details: for Number of trials to criteria, Complex discrimination / Number of trials to criteria, Simple discrimination: individual rats
Experimental: Male pups were treated with either 0.9% saline (sham) or PCP (20 mg/kg, sc) on post-natal days 7, 9 and 11 and then singly housed after weaning on postnatal days 21–25. All studies were conducted in adult animals (2–4 months of age) using methods adapted from. Rats were food-restricted (15g/rat/day) for 7 days prior to the initiation of training and throughout the remainder of the study. At the time of testing the average (± SEM) body weight ranged from 278 ± 6g to 296 ± 9g across the individual treatment groups. The animals then received 3 days of training during which they were handled, habituated to the test arena (5 min/day) and trained to dig in a ceramic pot for a food reward (Honey Nut Cheerios). The testing arena was constructed of black plastic (45 cm wide x 60 cm long x 45 cm tall) and divided into 3 compartments, i.e. a separate starting box and 2 choice boxes separated by an opaque wall. Each choice box contained a terracotta (4 inch diameter) pot, filled with digging media and with scented oil applied to the rim. At the beginning of each trial the animal was placed in the start box, the sliding door was opened and the subject was allowed to freely explore the two choice boxes. Both pots were initially baited with food until the subject reliably retrieved the food rewards from each. Thereafter, rats were trained to discriminate between either 2 distinct odors (stimulus dimension 1) or 2 distinct digging media (stimulus dimension 2) in order to correctly identify the baited pot. On the first trial only, rats were allowed to dig in both pots if an error was made (with the trial scored as an error trial). Thereafter animals were allowed to dig in one pot only per trial and were tested until the performance criterion of 6 consecutive correct choices was achieved. Each trial was limited to a maximum duration of 5 min and any subject not achieving performance criteria was eliminated from the study. On completion of a successful odor discrimination animals were then trained to successfully complete a simple discrimination trial based on digging media. Odor and digging media used in these initial training trials were not used again for ID/ED testing. […] All subjects were brought to the experimental laboratory at least 30 min prior to behavioral assessment. To determine ID/ED performance rats were tested for their ability to successfully complete a series of discriminations based on either odor or digging media. In all instances subjects were pre-assigned one stimulus dimension (i.e. digging media or odor) as the correct predictor of the food reward for the first series of discriminations. Only at the final stage i.e. the extra-dimensional shift (EDS) was the subject required to shift attention away from the assigned stimulus dimension to a different dimension (e.g. odor to digging media) to correctly identify the baited pot. The sequence of discriminations was a follows: simple discrimination (SD), compound discrimination (CD), intra-dimensional shift 1 (IDS1), intra-dimensional shift 2 (IDS2), intra-dimensional shift 2 reversal (IDS2rev) and EDS and examples of exemplars are shown in S1 Table. For all discrimination stages successful completion was defined as 6 consecutive correct trials at which point subjects progressed to the next phase of the task. The test session ended when either i) all discrimination phases were successfully completed or ii) testing had proceeded for 120 min. The average duration of a test session was 1 h and all subjects completed the ID/ED task within the allotted timeframe.

[4] = target: T2, α7 nAChR (Mus musculus, UniProt P49582); assay: Ex vivo α7 nAChR occupancy ([3H]-A-585539); assay type: in vivo
T2 construct: One forebrain hemisphere from each animal was thawed and homogenized in assay buffer; from tissue; host or cells: forebrain homogenate of dosed male C57Bl/6 mice
Experimental: Occupancy determinations were made either on completion of behavioral testing or in satellite groups of animals dosed in parallel with behavioral testing. At specified time points after dosing, the forebrain (for occupancy), the remaining hindbrain (for brain drug exposure) and plasma were collected, frozen in chilled isopentane and stored at -80°C until assayed. […] Homogenized tissue aliquots were frozen immediately and stored at -80°C. […] The filters were washed with ice-cold assay buffer, punched into a clear plate and 200 μl scintillation fluid added per well. Bound radioactivity was measured using a Wallac Microbeta liquid scintillation counter. Specific binding was calculated by subtracting the value of the non-specific binding from that of the total binding in each sample. The percent occupancy was calculated as [1 –(specific binding in drug treated mice/specific binding in vehicle treated mice)] x 100.

[5] = target: Androgen receptor (Rattus norvegicus, UniProt P15207); assay: Selectivity panel, binding
[6] = target: Nav1.5 (Homo sapiens, UniProt Q14524); assay: Selectivity panel, functional; assay type: cell-based
[7] = target: Dopamine D1 (Homo sapiens, UniProt P21728); assay: Selectivity panel, binding
[8] = target: Dopamine D2 (Homo sapiens, UniProt P14416); assay: Selectivity panel, binding
[9] = system: L-type calcium channel; assay: Selectivity panel, functional; assay type: cell-based; details: Human
[10] = target: Muscarinic M1 (Homo sapiens, UniProt P11229); assay: Selectivity panel, binding; details: read-out: % inhibition @ 10 µM
[11] = target: Progesterone receptor (Homo sapiens, UniProt P06401); assay: Selectivity panel, binding
[12] = target: HEK293/Human α7 nAChR (Homo sapiens, UniProt P36544); assay: [3H]-A-585539 filtration binding; parameters: expressed in transfected cells
Sequence of HEK293/Human α7 nAChR (P36544 23-502): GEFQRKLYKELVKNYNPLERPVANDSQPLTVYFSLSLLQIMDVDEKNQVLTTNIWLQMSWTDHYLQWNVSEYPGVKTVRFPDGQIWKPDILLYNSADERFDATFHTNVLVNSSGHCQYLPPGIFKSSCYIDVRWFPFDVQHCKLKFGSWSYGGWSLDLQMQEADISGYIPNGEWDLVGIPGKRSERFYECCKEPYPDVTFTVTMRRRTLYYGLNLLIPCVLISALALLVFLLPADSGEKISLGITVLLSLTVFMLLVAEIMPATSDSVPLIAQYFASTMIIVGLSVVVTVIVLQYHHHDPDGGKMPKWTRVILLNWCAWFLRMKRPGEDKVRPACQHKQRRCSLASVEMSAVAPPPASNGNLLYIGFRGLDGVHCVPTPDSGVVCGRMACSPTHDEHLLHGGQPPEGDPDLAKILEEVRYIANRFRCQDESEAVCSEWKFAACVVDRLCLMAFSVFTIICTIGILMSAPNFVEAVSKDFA

T2 sequence (P49582 23-502): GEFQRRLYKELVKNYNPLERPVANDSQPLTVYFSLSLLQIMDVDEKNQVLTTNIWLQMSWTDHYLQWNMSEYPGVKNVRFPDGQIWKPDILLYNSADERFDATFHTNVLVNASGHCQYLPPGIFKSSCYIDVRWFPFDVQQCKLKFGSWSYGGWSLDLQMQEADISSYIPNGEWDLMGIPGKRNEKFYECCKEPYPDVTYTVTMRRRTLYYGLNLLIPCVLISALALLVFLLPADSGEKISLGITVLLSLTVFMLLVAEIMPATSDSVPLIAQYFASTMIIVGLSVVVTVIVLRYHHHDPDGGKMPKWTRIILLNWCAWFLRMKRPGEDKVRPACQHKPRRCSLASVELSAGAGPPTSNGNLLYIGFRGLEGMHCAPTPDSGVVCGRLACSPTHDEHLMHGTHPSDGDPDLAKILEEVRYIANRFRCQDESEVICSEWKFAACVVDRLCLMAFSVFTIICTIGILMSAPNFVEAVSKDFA
T1 sequence (P36544 23-502): as the sequence (P36544 23-502) above
Sequence of Progesterone receptor (P06401 whole entry): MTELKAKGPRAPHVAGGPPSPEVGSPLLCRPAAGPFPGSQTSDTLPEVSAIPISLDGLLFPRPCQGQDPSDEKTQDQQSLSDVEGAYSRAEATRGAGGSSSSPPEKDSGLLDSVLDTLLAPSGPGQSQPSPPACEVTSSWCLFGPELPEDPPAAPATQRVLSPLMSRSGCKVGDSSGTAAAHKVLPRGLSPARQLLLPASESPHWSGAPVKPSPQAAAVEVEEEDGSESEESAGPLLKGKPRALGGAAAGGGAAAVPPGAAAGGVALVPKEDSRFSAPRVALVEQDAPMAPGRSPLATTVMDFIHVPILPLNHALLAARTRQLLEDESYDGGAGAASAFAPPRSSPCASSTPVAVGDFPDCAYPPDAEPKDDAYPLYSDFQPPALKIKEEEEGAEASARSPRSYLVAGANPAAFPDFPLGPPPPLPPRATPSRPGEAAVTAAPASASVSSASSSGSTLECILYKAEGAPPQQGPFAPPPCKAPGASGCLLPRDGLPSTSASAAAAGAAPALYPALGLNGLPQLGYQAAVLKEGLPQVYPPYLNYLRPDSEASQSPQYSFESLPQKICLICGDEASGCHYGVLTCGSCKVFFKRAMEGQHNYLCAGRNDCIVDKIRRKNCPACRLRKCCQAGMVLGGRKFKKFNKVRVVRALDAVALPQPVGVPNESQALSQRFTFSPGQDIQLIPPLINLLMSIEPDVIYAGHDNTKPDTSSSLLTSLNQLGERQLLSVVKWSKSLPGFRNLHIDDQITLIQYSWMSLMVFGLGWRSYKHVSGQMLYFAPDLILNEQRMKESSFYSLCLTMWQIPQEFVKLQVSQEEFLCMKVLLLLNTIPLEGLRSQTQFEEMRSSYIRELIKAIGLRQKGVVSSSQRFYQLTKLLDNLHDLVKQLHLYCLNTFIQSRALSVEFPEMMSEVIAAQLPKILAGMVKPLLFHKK
Sequence of Dopamine D1 (P21728 whole entry): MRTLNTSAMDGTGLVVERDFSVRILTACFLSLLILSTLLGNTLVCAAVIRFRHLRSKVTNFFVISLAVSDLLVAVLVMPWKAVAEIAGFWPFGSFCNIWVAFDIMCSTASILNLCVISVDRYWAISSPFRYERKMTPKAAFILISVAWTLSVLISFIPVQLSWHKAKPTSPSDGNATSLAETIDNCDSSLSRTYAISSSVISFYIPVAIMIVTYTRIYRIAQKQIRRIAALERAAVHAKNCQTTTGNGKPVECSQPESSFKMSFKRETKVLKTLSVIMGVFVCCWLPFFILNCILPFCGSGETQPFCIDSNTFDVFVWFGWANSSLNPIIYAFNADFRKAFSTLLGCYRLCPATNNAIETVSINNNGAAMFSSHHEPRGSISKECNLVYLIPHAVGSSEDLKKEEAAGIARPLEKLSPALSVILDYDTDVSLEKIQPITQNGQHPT
Sequence of Androgen receptor (P15207 whole entry S389L): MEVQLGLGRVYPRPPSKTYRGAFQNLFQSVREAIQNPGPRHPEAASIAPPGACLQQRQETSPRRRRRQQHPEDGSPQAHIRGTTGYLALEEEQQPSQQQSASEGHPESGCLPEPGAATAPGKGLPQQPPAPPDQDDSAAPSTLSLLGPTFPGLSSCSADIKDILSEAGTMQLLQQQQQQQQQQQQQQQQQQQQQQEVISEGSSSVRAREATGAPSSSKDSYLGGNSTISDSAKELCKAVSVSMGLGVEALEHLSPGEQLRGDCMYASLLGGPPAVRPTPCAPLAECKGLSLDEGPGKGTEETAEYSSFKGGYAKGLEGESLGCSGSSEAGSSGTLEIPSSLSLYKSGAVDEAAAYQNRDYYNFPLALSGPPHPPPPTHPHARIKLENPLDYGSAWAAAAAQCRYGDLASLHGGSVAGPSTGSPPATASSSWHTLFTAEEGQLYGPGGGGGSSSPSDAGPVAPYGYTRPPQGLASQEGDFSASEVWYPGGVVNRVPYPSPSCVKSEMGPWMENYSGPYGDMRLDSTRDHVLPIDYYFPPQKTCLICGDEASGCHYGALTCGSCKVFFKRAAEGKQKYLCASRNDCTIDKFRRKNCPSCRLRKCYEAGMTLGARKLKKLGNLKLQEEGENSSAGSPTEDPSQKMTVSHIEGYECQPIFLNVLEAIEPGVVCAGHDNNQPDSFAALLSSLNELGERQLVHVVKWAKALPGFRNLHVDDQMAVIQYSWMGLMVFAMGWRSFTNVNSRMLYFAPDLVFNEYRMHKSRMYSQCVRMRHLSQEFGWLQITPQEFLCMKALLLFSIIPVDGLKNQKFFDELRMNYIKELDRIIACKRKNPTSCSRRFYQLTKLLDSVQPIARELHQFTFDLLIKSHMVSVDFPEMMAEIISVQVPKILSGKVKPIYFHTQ
Sequence of Dopamine D2 (P14416 whole entry): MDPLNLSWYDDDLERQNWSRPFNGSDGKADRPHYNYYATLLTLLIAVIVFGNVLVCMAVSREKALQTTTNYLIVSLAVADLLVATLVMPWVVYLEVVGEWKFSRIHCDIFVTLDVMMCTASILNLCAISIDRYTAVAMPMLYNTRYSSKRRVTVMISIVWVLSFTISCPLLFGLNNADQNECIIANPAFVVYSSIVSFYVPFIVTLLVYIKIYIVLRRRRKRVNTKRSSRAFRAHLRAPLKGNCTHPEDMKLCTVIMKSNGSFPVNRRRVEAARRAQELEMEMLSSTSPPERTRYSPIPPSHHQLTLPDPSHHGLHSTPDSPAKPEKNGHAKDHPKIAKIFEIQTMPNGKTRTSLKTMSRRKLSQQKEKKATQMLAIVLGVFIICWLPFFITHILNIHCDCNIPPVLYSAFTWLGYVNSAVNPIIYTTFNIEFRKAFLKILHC
Sequence of Muscarinic M1 (P11229 whole entry): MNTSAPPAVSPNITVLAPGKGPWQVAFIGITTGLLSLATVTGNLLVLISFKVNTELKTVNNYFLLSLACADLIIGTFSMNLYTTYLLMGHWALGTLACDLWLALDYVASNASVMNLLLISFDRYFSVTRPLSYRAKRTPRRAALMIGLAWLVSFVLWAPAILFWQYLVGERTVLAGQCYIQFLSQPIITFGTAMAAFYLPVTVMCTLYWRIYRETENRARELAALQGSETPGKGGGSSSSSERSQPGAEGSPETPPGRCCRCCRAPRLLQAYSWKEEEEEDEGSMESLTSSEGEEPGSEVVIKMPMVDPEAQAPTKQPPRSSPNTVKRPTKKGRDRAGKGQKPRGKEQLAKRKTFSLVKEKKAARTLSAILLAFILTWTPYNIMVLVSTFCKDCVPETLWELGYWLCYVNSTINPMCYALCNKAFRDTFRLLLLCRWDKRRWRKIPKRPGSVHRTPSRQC

c1cn(-c2cc(NC3=NC[C@@]4(CN5CCC4CC5)O3)ncn2)cn1 [BMS-933043, (2R)-N-(6-(1H-imidazol-1-yl)-4-pyrimidinyl)-4'H-spiro[4-azabicyclo[2.2.2]octane-2,5'-[1,3]oxazol]-2'-amine]
EC50 [1]: 290 ± 10 nM
Net Charge (Current Area) normalized to 300 µM ACh ([1]; 0.1 µM): 0.01982 and 0.01318 and 0.03866 and 0.03782 and 0.02283 and 0.01327 and 0.03856
Peak Current normalized to 3 mM ACh ([1]; 0.1 µM): 0.005961 and 0.006675 and 0.008382 and 0.007317 and 0.006875 and 0.005721 and 0.00606
Net Charge (Current Area) normalized to 300 µM ACh ([1]; 0.3 µM): 0.3496 and 0.3624 and 0.3212 and 0.3215 and 0.2954 and 0.3576 and 0.4143
Peak Current normalized to 3 mM ACh ([1]; 0.3 µM): 0.02637 and 0.02303 and 0.02389 and 0.02438 and 0.0295 and 0.03259 and 0.02737
Net Charge (Current Area) normalized to 300 µM ACh ([1]; 1 µM): 0.6952 and 0.6304 and 0.6554 and 0.6122 and 0.619 and 0.6592 and 0.8129
Peak Current normalized to 3 mM ACh ([1]; 1 µM): 0.05479 and 0.03294 and 0.04392 and 0.05131 and 0.08504 and 0.08024 and 0.07272
Net Charge (Current Area) normalized to 300 µM ACh ([1]; 3 µM): 0.7025 and 0.6903 and 0.6991 and 0.888 and 0.7947 and 0.7791 and 0.7655
Peak Current normalized to 3 mM ACh ([1]; 3 µM): 0.126 and 0.0997 and 0.1092 and 0.09913 and 0.1966 and 0.202 and 0.183
Net Charge (Current Area) normalized to 300 µM ACh ([1]; 10 µM): 0.8035 and 0.7537 and 0.7969 and 0.7637 and 0.7224 and 0.6788 and 0.8823
Peak Current normalized to 3 mM ACh ([1]; 10 µM): 0.217 and 0.1532 and 0.1702 and 0.1779 and 0.3334 and 0.2987 and 0.3004
Mean ± SEM Net Charge Ymax ([1]; Human, normalized to 300 μM ACh): 0.78 ± 0.004
Mean ± SEM Peak Current Ymaxobs @ 10 μM ([1]; Human, normalized to 3 mM ACh): 0.24 ± 0.03
time spent in the novel arm in MK-801-treated mice ([2]; doses of 1, 3 and 10 mg/kg sc): significantly increased time spent in the novel arm
Active dose range, MK-801 Y maze ([2]; sc): 1–10 (sc) mg/kg
EDS performance in neonatal PCP treated rats ([3]; 0.1–3 mg/kg po): significantly improved EDS performance; also recorded: completely reversed by all doses
Number of trials to criteria, Complex discrimination ([3]; PCP/0.1 mg/kg po, 0.1 mg/kg): 6 (2×) and 16 and 7 (2×) and 8 (2×) and 21 and 19
Number of trials to criteria, Simple discrimination ([3]; PCP/0.1 mg/kg po, 0.1 mg/kg): 7 (3×) and 11 and 9 and 8 (2×) and 10 and 6
Number of trials to criteria, Complex discrimination ([3]; PCP/0.3 mg/kg po, 0.3 mg/kg): 18 and 10 (2×) and 7 and 6 (3×) and 8 and 16
Number of trials to criteria, Simple discrimination ([3]; PCP/0.3 mg/kg po, 0.3 mg/kg): 10 and 15 and 13 and 8 and 9 and 12 and 6 and 19 and 7
Number of trials to criteria, Complex discrimination ([3]; PCP/1 mg/kg po, 1 mg/kg): 6 (2×) and 11 (2×) and 7 (2×) and 13 and 14 (2×)
Number of trials to criteria, Simple discrimination ([3]; PCP/1 mg/kg po, 1 mg/kg): 6 (3×) and 12 (2×) and 13 and 11 and 8 and 9
Number of trials to criteria, Complex discrimination ([3]; PCP/3 mg/kg po, 3 mg/kg): 6 (2×) and 8 and 16 and 10 (2×) and 15 and 17 and 11
Number of trials to criteria, Simple discrimination ([3]; PCP/3 mg/kg po, 3 mg/kg): 7 (4×) and 6 (2×) and 16 (2×) and 9
Active dose range, Neonatal PCP ID/ED ([3]; po): 0.1–3.0 (po) mg/kg
longer time to complete the EDS in neonatal PCP treated rats ([3]; po): attenuated
EC50 [4]: 1900 nM
% ex vivo α7 nAChR occupancy ([4]; 0.3 mg/kg sc, 30 min, individual mice): 11.2% and -5.2% and 7.5% and -6.3%
% ex vivo α7 nAChR occupancy ([4]; 1 mg/kg sc, 30 min): 18.3% and 25.5% and 25.4% and ~ 20%
% ex vivo α7 nAChR occupancy ([4]; 3 mg/kg sc, 30 min, individual mice): 56.2% and 44.9% and 45.1%
% ex vivo α7 nAChR occupancy ([4]; 10 mg/kg sc, 30 min): 76.4% and 74.8% and 75.4% and > 75%
% ex vivo α7 nAChR occupancy ([4]; 100 mg/kg sc, 30 min, individual mice): 93.3% and 94.1% and 92.1%
receptor occupancy at 1 mg/kg ([4]; mouse, sc, read-out: % ex vivo α7 nAChR occupancy, 1 mg/kg sc, 30 min): 23.9%
receptor occupancy at 3 mg/kg ([4]; mouse, sc, read-out: % ex vivo α7 nAChR occupancy, 3 mg/kg sc, 30 min, individual mice): 41.3%
receptor occupancy at 10 mg/kg ([4]; mouse, sc, read-out: % ex vivo α7 nAChR occupancy, 10 mg/kg sc, 30 min): 78.5%
receptor occupancy at 100 mg/kg ([4]; mouse, sc, read-out: % ex vivo α7 nAChR occupancy, 100 mg/kg sc, 30 min, individual mice): 91.3%
IC50 [5]: > 150 µM
IC50 [6]: > 30 µM
IC50 [7]: > 30 µM
IC50 [8]: > 30 µM
IC50 [9]: > 25 µM
inhibition at 10 µM [10]: 11%
IC50 [11]: > 150 µM
Ki ([12]; HEK293/Human α7 nAChR Mean ± SD Ki): 8 nM
Ki ([12]; HEK293/human α7 nAChR Ki (individual)): 10.5 nM and 5.7 nM
Ki ([12]; read-out: HEK293/Human α7 nAChR Mean ± SD Ki): 8.1 nM
Ki ([12]; read-out: HEK293/human α7 nAChR Ki (individual)): 8.1 nM

— paper PMC4965148 (PLoS ONE, 2016)
